Tested on: rabbit costicartilage cells
Test: Cartilage matrix (proteoglycan) production, Alcian blue staining (Experimental Examples 3 and 4)
Format: cell-based
Details: summary of Tables 10 and 11
From the text: Costicartilages were isolated from NZ line rabbit (Kitayama Labes., Co Ltd.; male; 4-week-old) and soaked into Hank's balanced salt solution (calcium- and magnesium-free; LifeTech Co., Ltd.; hereinafter, referred to as “HBSS”). One costicartilage and one costa were excised together, the adipose tissue and the muscle tissue were removed and then, the proliferating chondrocyte layer of costicartilage was excised. The collected proliferating chondrocyte layer was cut into sections with a surgical knife (FEATHER Safety Razor Co., Ltd.) and the all proliferating chondrocyte layer sections from 4 rabbits were combined in a centrifuge tube. To the centrifuge tube was added 40 ml of HBSS (pH 7.2) supplied with 0.1% tetrasodium ethylenediamine tetraacetate to obtain suspension of the proliferating chondrocyte layer sections, which was shaken at 37° C. for 20 minutes and centrifuged (1500 rpm, 10 minutes). The supernatant was aspirated off, and 40 ml of HBSS (pH 7.2) supplied with 0.2% trypsin was added to the tube to suspend the precipitates and shaken at 37° C. for 1 hour. The tube was centrifuged (1500 rpm, 10 minutes), and the supernatant was aspirated off. The precipitates were washed twice with HBSS, suspended in 100 ml of HBSS supplied with 0.1% collagenase (Wako Pure Chemical Industries, Ltd., 034-10533) and shaken at 37° C. for 3 hours. The content of the tube was passed through the Cell Strainer (pore size 40 μm) and the filtrate was divided into four centrifuge tubes. To each of all four tubes was added 40 ml of medium (α-MEM, LifeTech Co., Ltd.), and the tubes were centrifuged (1500 rpm, 10 minutes). The supernatant was aspirated off, and the resultant precipitates were collected in one tube with Pipetman. After addition of 40 ml of the same medium, the tube was re-centrifuged (1500 rpm, 10 minutes). Washing procedure comprising addition of medium followed by centrifugation was repeated additional three times. The precipitates were suspended in the same medium to give an about 5 ml suspension, and the cell number was counted.
The suspension of costicartilage cell described above was added to 24-well plate at 50,000 cells per well (day 1). […]
After removing the medium, cells in each well were fixed by addition of 1 ml of neutral buffer containing 4% paraformaldehyde and incubation for 30 minutes at room temperature. […] Absorbance at 620 nm was measured, and cartilage matrix amount (proteoglycan production amount) in each well was estimated, and proteoglycan production rate (%) of each test compound for vehicle (100%) was calculated.
The cartilage matrix (proteoglycan) production was determined using other compounds (compounds (52)-(55) and Compound (2) for comparison) in exactly the same manner as Experimental Example 3 above.

## CCOc1cc2cc(CO)c(CO)c(-c3ccnc(-n4nc(-c5cccnc5)c5ccccc5c4=O)c3)c2cc1OCC [Compound (2)]
  cartilage matrix (proteoglycan) production promoting effect (in words): remarkable matrix production promoting effect

From patent US7659273B2, “Composition for accelerating bone fracture healing” (Mitsubishi Tanabe Pharma Corporation, priority 2001, dated 2010)
